Assay results published in patent US20230027066A1 (Urovant Sciences GmbH, priority 2019, published 2023).

Assays:
[1] = Phase 3 study (75 mg), adverse events; format: in vivo, human; settings: for Patients with at least one Serious AE: vibegron 75 mg or tolterodine ER 4 mg once daily
Experimental: (§1) Study assessments of safety included adverse events, physical examinations, vital signs (and weight), and clinical laboratory tests
An adverse event is any untoward medical occurrence in a patient or clinical investigation patient, temporally associated with the use of a medicinal product, whether or not considered related to the medicinal product.
Adverse Events of Clinical Interest for this study included:
Safety analyses were conducted using the SAF and summarized by treatment group as treated. The treatment-emergent period is defined as the period of time from the first dose date of the double blinded Study Treatment through 28 days after the last dose of Study Treatment, or the date of initiation of another investigational agent or surgical intervention or rollover to the extension study, whichever occurs first. Safety was assessed through summaries of adverse events, the frequency of treatment discontinuations due to adverse events, and clinical laboratory evaluations.

[2] = Phase 3 study (75 mg), heart rate and blood pressure changes; format: in vivo, human; settings: for Diastolic BP categorical change from baseline ≥5 mm Hg, patients / Diastolic BP categorical change from baseline ≥10 mm Hg, patients / Diastolic BP categorical change from baseline ≥15 mm Hg, patients / Heart Rate categorical change from baseline ≥5 bpm, patients / Heart Rate categorical change from baseline ≥10 bpm, patients / Heart Rate categorical change from baseline ≥15 bpm, patients / Systolic BP categorical change from baseline ≥5 mm Hg, patients / Systolic BP categorical change from baseline ≥10 mm Hg, patients / Systolic BP categorical change from baseline ≥15 mm Hg, patients: 3 consecutive post-baseline visits; for Diastolic BP, Mean Change from Baseline at Week 12 (SD) / Heart Rate, Mean Change from Baseline at Week 12 / Systolic BP, Mean Change from Baseline at Week 12: Week 12, all patients
Description: as §1
Categorical changes are based on 3 consecutive post-baseline visits and patients are counted in all applicable categories (e.g., if a patient has a 12 unit increase then that patient is counted in both ≥5 and ≥10 unit columns).
Blood Pressure assessments are taken in triplicate and averaged at each visit.

[3] = safety population, 12-week study

O=C(Nc1ccc(C[C@@H]2CC[C@H]([C@H](O)c3ccccc3)N2)cc1)[C@@H]1CCc2nccc(=O)n21 [Vibegron, (6S)-N-[4-[[(2S,5R)−5-[(R)-hydroxy(phenyl)methyl]pyrrolidin−2-yl]methyl]phenyl]−4-oxo−7,8-dihydro−6H-pyrrolo[1,2-a]pyrimidine−6-carboxamide]
AE: ALT increase ([1]; 12-week study): 1 (0.2) n (%)
AE: AST increase ([1]; 12-week study): 1 (0.2) n (%)
AE: Atrial fibrillation ([1]; 12-week study): 1 (0.2) n (%)
AE: Bilirubin increased ([1]; 12-week study): 0 n (%)
AE: Blood creatinine increased ([1]; 12-week study): 1 (0.2) n (%)
AE: Blood pressure diastolic increased ([1]; 12-week study): 0 n (%)
AE: Blood pressure increased ([1]; 12-week study): 4 (0.7) n (%)
AE: Cardiac failure congestive ([1]; 12-week study): 1 (0.2%) n (%)
AE: Cerebrovascular accident ([1]; 12-week study): 1 (0.2) n (%)
AE: Chest discomfort ([1]; 12-week study): 4 (0.7) n (%)
AE: Chest pain ([1]; 12-week study): 0 n (%)
AE: Chronic kidney disease ([1]; 12-week study): 1 (0.2) n (%)
AE: Constipation ([1]; 12-week study): 9 (1.7) n (%)
AE: Cystitis ([1]; 12-week study): 1 (0.2) n (%)
AE: Diarrhea ([1]; 12-week study): 12 (2.2) n (%)
AE: Dizziness ([1]; 12-week study): 5 (0.9) n (%)
AE: Drug hypersensitivity ([1]; 12-week study): 2 (0.4) n (%)
AE: Dry mouth ([1]; 12-week study): 9 (1.7) n (%)
AE: Dysuria ([1]; 12-week study): 0 n (%)
AE: Escherichia urinary-tract infection ([1]; 12-week study): 0 n (%)
AE: Fatigue ([1]; 12-week study): 2 (0.4) n (%)
AE: Glomerular filtration rate decreased ([1]; 12-week study): 1 (0.2) n (%)
AE: Headache ([1]; 12-week study): 22 (4.0) n (%)
AE: Hepatic enzyme increased ([1]; 12-week study): 0 n (%)
AE: Hot flush ([1]; 12-week study): 4 (0.7) n (%)
AE: Hyperglycemia ([1]; 12-week study): 3 (0.6) n (%)
AE: Hypertension ([1]; 12-week study): 9 (1.7) n (%)
AE: Hypotension ([1]; 12-week study): 1 (0.2) n (%)
AE: Nasopharyngitis ([1]; 12-week study): 15 (2.8) n (%)
AE: Nausea ([1]; 12-week study): 12 (2.2) n (%)
AE: Pollakiuria ([1]; 12-week study): 0 n (%)
AE: Positional vertigo ([1]; 12-week study): 0 n (%)
AE: Residual urine volume increased ([1]; 12-week study): 4 (0.7) n (%)
AE: Somnolence ([1]; 12-week study): 2 (0.4) n (%)
AE: Syncope ([1]; 12-week study): 0 n (%)
AE: Tachycardia ([1]; 12-week study): 0 n (%)
AE: Transaminases increased ([1]; 12-week study): 1 (0.2) n (%)
AE: Type 2 diabetes mellitus ([1]; 12-week study): 2 (0.4) n (%)
AE: Urinary retention ([1]; 12-week study): 3 (0.6) n (%)
AE: Urinary tract infection ([1]; 12-week study): 27 (5.0) n (%)
AE: Vertigo ([1]; 12-week study): 1 (0.2) n (%)
AE: Back pain ([1]; patients ≥75 years): 2.7%
AE: Diarrhea ([1]; patients ≥75 years): 4.0%
AE: Dyspnea ([1]; patients ≥75 years): 4.0%
AE: Nausea ([1]; patients ≥75 years): 2.7%
AE: Rash ([1]; patients ≥75 years): 2.7%
AE: Somnolence ([1]; patients ≥75 years): 2.7%
AE: Upper respiratory tract infection ([1]; patients ≥75 years): 4.0%
AE: Urinary retention ([1]; patients ≥75 years): 2.7%
AE: Urinary tract infection ([1]; patients ≥75 years): 8.0%
Overall AE rate ([1]; patients ≥75 years): 49.3%
Any AE of clinical interest, % ([1]; safety population): (6.6%)
Patients with at least one treatment emergent serious AEs, % ([1]; safety population): (1.5) %
SAEs considered treatment-related by the investigator, % ([1]; safety population): (0.4) %
SAEs: Hospitalization, % ([1]; safety population): (1.3) %
SAEs: other serious criteria, % ([1]; safety population): (0.4) %
Patients with at least one treatment emergent adverse events, % [1, 3]: (38.7) %
Patients with at least one Serious AE ([1]; 12 weeks): 1.5%
Diastolic BP categorical change from baseline ≥5 mm Hg, patients [2]: 7.0%
Diastolic BP categorical change from baseline ≥10 mm Hg, patients [2]: 1.3%
Diastolic BP categorical change from baseline ≥15 mm Hg, patients [2]: 0.2%
Heart Rate categorical change from baseline ≥5 bpm, patients [2]: 8.6%
Heart Rate categorical change from baseline ≥10 bpm, patients [2]: 1.8%
Heart Rate categorical change from baseline ≥15 bpm, patients [2]: 0.4%
Systolic BP categorical change from baseline ≥5 mm Hg, patients [2]: 11.2%
Systolic BP categorical change from baseline ≥10 mm Hg, patients [2]: 4.2%
Systolic BP categorical change from baseline ≥15 mm Hg, patients [2]: 1.3%
Diastolic BP, 12-week change (95% CI) ([2]; Hypertensive at baseline): −3.2 (−6.3, −0.1) mm Hg
Heart Rate, 12-week change ([2]; Hypertensive at baseline): +2.2 beats/minute
Systolic BP, 12-week change (95% CI) ([2]; Hypertensive at baseline): −9.1 (−13.8, −4.4) mm Hg
Diastolic BP, 12-week change (95% CI) ([2]; Normotensive at baseline): +0.5 (−0.2, +1.1) mm Hg
Heart Rate, 12-week change ([2]; Normotensive at baseline): +0.4 beats/minute
Systolic BP, 12-week change (95% CI) ([2]; Normotensive at baseline): +1.0(0, +2.0) mm Hg
Diastolic BP, Mean Change from Baseline at Week 12 (SD) [2]: 0.2 (7.43) mm Hg
Heart Rate, Mean Change from Baseline at Week 12 [2]: 0.5 beats/minute
Systolic BP, Mean Change from Baseline at Week 12 [2]: 0.2 mm Hg

Cc1ccc(O)c([C@H](CCN(C(C)C)C(C)C)c2ccccc2)c1 [Tolterodine ER, tolterodine, reference compound]
AE: ALT increase ([1]; 12-week study): 1 (0.2) n (%)
AE: AST increase ([1]; 12-week study): 1 (0.2) n (%)
AE: Atrial fibrillation ([1]; 12-week study): 1 (0.2) n (%)
AE: Bilirubin increased ([1]; 12-week study): 1 (0.2) n (%)
AE: Blood creatinine increased ([1]; 12-week study): 1 (0.2) n (%)
AE: Blood pressure diastolic increased ([1]; 12-week study): 1 (0.2%) n (%)
AE: Blood pressure increased ([1]; 12-week study): 8 (1.9) n (%)
AE: Cardiac failure congestive ([1]; 12-week study): 0 n (%)
AE: Cerebrovascular accident ([1]; 12-week study): 1 (0.2) n (%)
AE: Chest discomfort ([1]; 12-week study): 0 n (%)
AE: Chest pain ([1]; 12-week study): 0 n (%)
AE: Chronic kidney disease ([1]; 12-week study): 0 n (%)
AE: Constipation ([1]; 12-week study): 6 (1.4) n (%)
AE: Cystitis ([1]; 12-week study): 1 (0.2) n (%)
AE: Diarrhea ([1]; 12-week study): 9 (2.1) n (%)
AE: Dizziness ([1]; 12-week study): 4 (0.9) n (%)
AE: Drug hypersensitivity ([1]; 12-week study): 0 n (%)
AE: Dry mouth ([1]; 12-week study): 28 (6.5) n (%)
AE: Dysuria ([1]; 12-week study): 0 n (%)
AE: Escherichia urinary-tract infection ([1]; 12-week study): 1 (0.2%) n (%)
AE: Fatigue ([1]; 12-week study): 6 (1.4) n (%)
AE: Glomerular filtration rate decreased ([1]; 12-week study): 2 (0.5) n (%)
AE: Headache ([1]; 12-week study): 11 (2.6) n (%)
AE: Hepatic enzyme increased ([1]; 12-week study): 1 (0.2) n (%)
AE: Hot flush ([1]; 12-week study): 1 (0.2) n (%)
AE: Hyperglycemia ([1]; 12-week study): 2 (0.5) n (%)
AE: Hypertension ([1]; 12-week study): 11 (2.6) n (%)
AE: Hypotension ([1]; 12-week study): 1 (0.2) n (%)
AE: Nasopharyngitis ([1]; 12-week study): 11 (2.6) n (%)
AE: Nausea ([1]; 12-week study): 5 (1.2) n (%)
AE: Pollakiuria ([1]; 12-week study): 0 n (%)
AE: Positional vertigo ([1]; 12-week study): 1 (0.2) n (%)
AE: Residual urine volume increased ([1]; 12-week study): 6 (1.4) n (%)
AE: Somnolence ([1]; 12-week study): 2 (0.5) n (%)
AE: Syncope ([1]; 12-week study): 1 (0.2) n (%)
AE: Tachycardia ([1]; 12-week study): 1 (0.2) n (%)
AE: Transaminases increased ([1]; 12-week study): 0 n (%)
AE: Type 2 diabetes mellitus ([1]; 12-week study): 0 n (%)
AE: Urinary retention ([1]; 12-week study): 3 (0.7) n (%)
AE: Urinary tract infection ([1]; 12-week study): 25 (5.8) n (%)
AE: Vertigo ([1]; 12-week study): 1 (0.2) n (%)
AE: Back pain ([1]; patients ≥75 years): 2.1%
AE: Diarrhea ([1]; patients ≥75 years): 4.2%
AE: Dyspnea ([1]; patients ≥75 years): 0%
AE: Nausea ([1]; patients ≥75 years): 0%
AE: Rash ([1]; patients ≥75 years): 0%
AE: Somnolence ([1]; patients ≥75 years): 2.1%
AE: Upper respiratory tract infection ([1]; patients ≥75 years): 0%
AE: Urinary retention ([1]; patients ≥75 years): 4.2%
AE: Urinary tract infection ([1]; patients ≥75 years): 8.3%
Overall AE rate ([1]; patients ≥75 years): 50.0%
Any AE of clinical interest, % ([1]; safety population): (8.8%)
Patients with at least one treatment emergent serious AEs, % ([1]; safety population): (2.3) %
SAEs resulting in death, % ([1]; safety population): (0.2) %
SAEs: Hospitalization, % ([1]; safety population): (1.9) %
SAEs: other serious criteria, % ([1]; safety population): (0.5) %
Patients with at least one treatment emergent adverse events, % [1, 3]: (38.6) %
Tachycardia rate ([1]; tolterodine ER 4 mg once daily, 12 weeks): 0.2%
Patients with at least one Serious AE ([1]; 12 weeks): 2.3%
Diastolic BP categorical change from baseline ≥5 mm Hg, patients [2]: 7.4%
Diastolic BP categorical change from baseline ≥10 mm Hg, patients [2]: 2.1%
Diastolic BP categorical change from baseline ≥15 mm Hg, patients [2]: 0.7%
Heart Rate categorical change from baseline ≥5 bpm, patients [2]: 6.5%
Heart Rate categorical change from baseline ≥10 bpm, patients [2]: 2.1%
Heart Rate categorical change from baseline ≥15 bpm, patients [2]: 0.5%
Systolic BP categorical change from baseline ≥5 mm Hg, patients [2]: 9.3%
Systolic BP categorical change from baseline ≥10 mm Hg, patients [2]: 4.7%
Systolic BP categorical change from baseline ≥15 mm Hg, patients [2]: 2.1%
Diastolic BP, 12-week change (95% CI) ([2]; Hypertensive at baseline): −1.3 (−3.8, +1.3) mm Hg
Heart Rate, 12-week change ([2]; Hypertensive at baseline): +1.5 beats/minute
Systolic BP, 12-week change (95% CI) ([2]; Hypertensive at baseline): −7.6 (−10.9, −4.3) mm Hg
Diastolic BP, 12-week change (95% CI) ([2]; Normotensive at baseline): +0.5 (−0.2, +1.3) mm Hg
Heart Rate, 12-week change ([2]; Normotensive at baseline): +0.2 beats/minute
Systolic BP, 12-week change (95% CI) ([2]; Normotensive at baseline): +1.0 (−0.1, +2.1) mm Hg
Diastolic BP, Mean Change from Baseline at Week 12 (SD) [2]: 0.3 (7.11) mm Hg
Heart Rate, Mean Change from Baseline at Week 12 [2]: 0.3 beats/minute
Systolic BP, Mean Change from Baseline at Week 12 [2]: 0.1 mm Hg
